Experimental data from ChEMBL document CHEMBL4334440, “Osteoclastogenesis Regulation Metabolites from the Coral-Associated Fungus Pseudallescheria boydii TW-1024-3” (J Nat Prod, 2019).
Active and inactive are the calls of the source. The rule behind the calls is not given here.

What was measured:
BMDM [1] = experiment: Cytotoxicity against C57BL/6J mouse Bone marrow macrophage cells assessed as reduction in cell viability at < 10 uM after 48 hrs by CCK-8 assay; assay type: cell-based
BMDM [2] = experiment: Inhibition of RANKL/M-CSF-induced osteoclastogenesis in C57BL/6J mouse Bone marrow macrophage cells assessed as decrease in number of osteoclasts at 0.1 to 1 uM compound for every 2 days and measured after 7 days by TRAP staining based light microscopic method; assay type: functional, cell-based
BMDM [3] = experiment: Inhibition of RANKL/M-CSF-induced osteoclastogenesis in C57BL/6J mouse Bone marrow macrophage cells assessed as decrease in area of osteoclasts at 0.1 to 1 uM compound for every 2 days and measured after 7 days by TRAP staining based light microscopic method; assay type: functional, cell-based
BMDM [4] = experiment: Effect on RANKL/M-CSF-induced osteoclastogenesis in C57BL/6J mouse Bone marrow macrophage cells assessed as increase in number of osteoclasts at 0.1 to 1 uM compound for every 2 days and measured after 7 days by TRAP staining based light microscopic method; assay type: functional, cell-based
BMDM [5] = experiment: Effect on RANKL/M-CSF-induced osteoclastogenesis in C57BL/6J mouse Bone marrow macrophage cells assessed as increase in area of osteoclasts at 0.1 uM compound for every 2 days and measured after 7 days by TRAP staining based light microscopic method; assay type: functional, cell-based
BMDM [6] = experiment: Effect on RANKL/M-CSF-induced osteoclastogenesis in C57BL/6J mouse Bone marrow macrophage cells assessed as increase in number of osteoclasts at 1 uM compound for every 2 days and measured after 7 days by TRAP staining based light microscopic method; assay type: functional, cell-based
BMDM [7] = experiment: Effect on RANKL/M-CSF-induced osteoclastogenesis in C57BL/6J mouse Bone marrow macrophage cells assessed as increase in number of osteoclasts at 0.1 uM compound for every 2 days and measured after 7 days by TRAP staining based light microscopic method; assay type: functional, cell-based

SMILES	Activity (BMDM [1])	other results
CO[C@@H]1C(=O)CC[C@](O)(CCl)[C@@]1(O)[C@@]1(C)O[C@@H]1CC=C(C)C	Non-Toxic	inhibition (BMDM [2]): Active; inhibition (BMDM [3]): Active
C=C1CC[C@@]2(O)C[C@@H]1[C@@](C)(O)C(=O)[C@H]2C=C(C)C	Non-Toxic	Activity (BMDM [4]): Active; Activity (BMDM [5]): Active
C=C1CC[C@@]2(O)C[C@@H]1[C@](C)(O)C(=O)[C@H]2C=C(C)C	Non-Toxic	
CC(C)=CC[C@H]1O[C@]1(C)[C@]1(CO)OC(=O)CC[C@]1(O)CCl	Non-Toxic	Activity (BMDM [6]): Active
CO[C@@H]1C(=O)CC[C@]2(O)C[S+]([O-])[C@@H](CC=C(C)C)[C@](C)(O)[C@@]12O (some centres undefined)	Non-Toxic	
CC/C=C\[C@H](O)[C@H](O)C1=C(C)C(=O)[C@]2(O1)C(=O)N[C@@](OC)(C(=O)c1ccccc1)[C@@H]2O [PSEUROTIN A]	Non-Toxic	Activity (BMDM [7]): Active
CO[C@@H]1C(=O)CC[C@]2(O)CO[C@@H](CC=C(C)C)[C@](C)(O)[C@@]12O	Non-Toxic	Activity (BMDM [4]): Active; Activity (BMDM [5]): Active
CO[C@@H]1C(=O)CC[C@]2(CO2)[C@@]1(O)[C@@]1(C)O[C@@H]1CC=C(C)C [OVALICIN]	Non-Toxic	
C=C1CCC2(O)CC1C2(C)[C@H](O)CC=C(C)C (some centres undefined)	Non-Toxic	
CO[C@@H]1[C@H](O)CC[C@]2(O)C[S+]([O-])[C@@H](CC=C(C)C)[C@](C)(O)[C@@]12O (some centres undefined)	Non-Toxic	
CC[C@@H]1O[C@]2(C[C@H](O)C1(C)C)OC(=O)C[C@@H]2NC(C)=O	Non-Toxic	
